From patent US20220218679A1, “NOVEL COMPOUNDS AND PHARMACEUTICAL COMPOSITIONS THEREOF FOR THE TREATMENT OF INFLAMMATORY DISORDERS” (Galapagos NV, priority 2019, published 2022)
Converted amounts (≈) assume the structure as drawn. Where two headings read alike, the source gives them in different places.

Key:
Thermodynamic solubility = format: physicochemical; conditions: 37 °C, thermodynamic from solid
Source text: 4.2. Thermodynamic Solubility
Poor solubility, in particular poor thermodynamic solubility can limit the absorption of compounds from the gastrointestinal tract which in turn may reduce oral bioavailability.
Thermodynamic solubility investigates the solubility of a compound as a saturated solution in equilibrium, by opposition to kinetic solubility, which measures the solubility of a metastable solution where supersaturation may occur and provide over estimation of the actual solubility of the compound. (Klein, 2010)
4.2.2. Thermodynamic Solubility—Protocol 2
In a 8 mL glass vial, 1-2 mg of dry matter of compound were added and stirred with the suitable buffers (Fed State Simulated Intestine Fluid, FeSSIF, or Fasted State Simulated Intestine Fluid, FaSSIF, or Fasted State Simulated Gastric Fluid, FaSSGF, or phosphate buffer pH 7.4) for 24 h at r.t. (for the buffer pH 7.4) or 37° C. (for the GI fluids). The concentration of the mixture was 1 mg/mL.
A volume of 1000 μL were sampled, centrifuged for 10 min at 10 000 rpm and 500 μL of the supernatant were filtered on captiva plate. The samples were diluted in duplicates in DMSO (F100 and F10). Then, a final dilution (F100) in 80/20 H2O/MeCN containing the internal standard (warfarin) was used for LCMS-MS analysis.
A standard curve was made starting from a 40,000 ng/mL stock in DMSO, freshly prepared from dry matter. Then, successive concentrations at 15,000, 11,000, 6,000, 2,500, 1,000, 375, 150 and 75 ng/mL in DMSO were prepared.
Three quality control samples were made: one of 10,000, 1,500 and 200 ng/mL in DMSO, also starting from the DMSO working stock solution at 40,000 ng/mL.
The standard curve and quality controls were diluted a F100 in 80/20 H2O/MeCN (with internal standard) and analyzed on LC/MS-MS (API4000 or API5500).
The samples were analyzed on LC-MS with a flow rate of 0.6 mL/min. The mobile phase A was 0.1% formic acid in water and the mobile phase B was 0.1% formic acid in 90% MeCN and 10% of H2O. The sample was run under positive or negative ion spray on Pursuit C18—5 μm (2.0×20 mm) column, from Agilent.
The ratio analyte/internal standard peaks areas of the standard curve were plotted in a graph and a linear or polynomial of the second order equation was used to calculate the unknown concentrations of the test compound.
Solubility values were reported in μg/mL.

[1] = system: CL097 triggered TNFα release in human whole blood; experiment: Ex vivo human TNFα release inhibition (human whole blood assay); format: cell-based; conditions: Homo sapiens, CL097 2 μg/mL, 3 h 30 min at 37° C.
Source text: 4.10.1. Ex Vivo Human IFNα and TNFα Release Inhibition (Human Whole Blood Assay)
The aim of the assay is to evaluate the activity of compounds of the invention on the activated TLR/IRAK-4 pathway in an ex vivo human whole blood setting. Toll-like receptors (TLRs) are pattern recognition receptors that recognize a wide variety of microbial molecules, called pathogen-associated molecular patterns (PAMPs). Human TLR7 and TLR8 recognize imidazoquinoline compounds (e.g., CL097—CAS n #1026249-18-2) and single stranded RNAs as their natural ligands. Activation of TLRs leads to the production of several cytokines (e.g., IFNα, TNFα, IL-8, IL-6) by the TLR agonist-treated cells, whereas IRAK4 leads to the production of IFNα. Cytokine release is used as readout in this assay and represents a measure for the level of inhibition of the TLR/IRAK-4 pathway by the tested compound. It should be noted that in the context of the complete organism, other sources for these cytokines exist that are not dependent on the TLR/IRAK-4 pathway, such as e.g., macrophages (upon activation of the Fcγ receptor (Yan et al., 2012)) or T cells (upon activation of the T cell receptor (Brehm et al., 2005)).
4.10.1.1. Experimental Design
Blood was collected from healthy volunteers into lithium heparin tubes by venipuncture, then gently inverted several times to prevent clotting and incubated for at least 15 min at 37° C. on a rocking mixer shaker. Then, 100 μL of blood was dispensed into polypropylene 96-well microplate and pre-incubated in duplicate with 0.3% DMSO or test compound at different concentrations (from 30 to 0.01 μM, 3-fold dilutions to get 0.3% DMSO at the final) for 15 min at 37° C. After this pre-incubation, blood was triggered with CL097 (2 μg/mL from 1 mg/mL solution in water; InvivoGen, tlrl-c97) for 3 h 30 min at 37° C. Microtubes were centrifuged at 5000×g for 10 min at 4° C. and approximately 40 μL of plasma were collected into a polystyrene 96-well plate. Plasma could be analyzed freshly, within 30 min after triggering, or frozen at −80° C. Finally, the quantification of TNFα and IFNα were performed in the plasma using AlphaLISA Kit for TNFα and IFNα according to the manufacturer's instructions and read on the Ensight (PerkinElmer).
For each blood sample, the TNFα concentrations of the samples were determined from the fit. Data were then expressed a percentage of inhibition PIN for each replicate using the formula:
With mean TNFα with CL097=mean TNFα concentration of replicate samples triggered with CL097; TNFαsample1=TNFα concentration of sample 1; mean TNFα with vehicle=mean TNFα concentration of replicate samples treated with vehicle.
Curve fitting for pIC50 determination were generated using mean PIN±sem. Graphs and pIC50 calculations were derived using Prism 5.03 software (GraphPad).

[2] = Fasted State Simulated Gastric Fluid (FaSSGF), fassgf or other biorelevant, Fasted State Simulated Gastric Fluid, read-out: Tsol FaSSGF
[3] = Fasted State Simulated Intestine Fluid (FaSSIF), fassif, Fasted State Simulated Intestine Fluid, read-out: Tsol FaSSIF
[4] = Fed State Simulated Intestine Fluid (FeSSIF), fessif, Fed State Simulated Intestine Fluid, read-out: Tsol FeSSIF

SMILES | solubility thermodynamic at 24 h (Thermodynamic solubility; [2]) [µg/mL] | solubility thermodynamic at 24 h (Thermodynamic solubility; [3]) [µg/mL] | IC50 [1] [µM] | solubility thermodynamic at 24 h (Thermodynamic solubility; [4]) [µg/mL]
CNC(=O)c1cn2nc(C3CCOCC3)cc2cc1NC(=O)c1cccc(C(F)F)n1 [Compound 15, 5-[[6-(difluoromethyl)pyridine-2-carbonyl]amino]-N-methyl-2-tetrahydropyran-4-yl-pyrazolo[1,5-a]pyridine-6-carboxamide] | < 0.75 | < 0.75 | > 5 | –
CCOc1cn2nc(CCC(C)(C)O)cc2cc1NC(=O)c1cccn(C2CC2)c1=O [Compound 17, 1-cyclopropyl-N-[6-ethoxy-2-(3-hydroxy-3-methyl-butyl)pyrazolo[1,5-a]pyridin-5-yl]-2-oxo-pyridine-3-carboxamide] | 75.7 (≈ 178 µM) | 24.6 (≈ 58 µM) | 0.5 to 1 | 81 (≈ 191 µM)
CCOc1cn2nc(CCC(C)(C)O)cc2cc1NC(=O)c1cccn(C)c1=O [Compound 18, N-[6-ethoxy-2-(3-hydroxy-3-methyl-butyl)pyrazolo[1,5-a]pyridin-5-yl]-1-methyl-2-oxo-pyridine-3-carboxamide] | 68.9 (≈ 173 µM) | 20.6 (≈ 51.7 µM) | 0.5 to 1 | 84.1 (≈ 211 µM)
[2H]C([2H])([2H])C(O)(CCc1cc2cc(NC(=O)c3cccn(C4CC4)c3=O)c(OC)cn2n1)C([2H])([2H])[2H] [Compound 23, 1-cyclopropyl-N-[6-methoxy-2-[4,4,4-trideuterio-3-hydroxy-3-(trideuteriomethyl)butyl]pyrazolo[1,5-a]pyridin-5-yl]-2-oxo-pyridine-3-carboxamide] | 104 (≈ 250 µM) | 16 (≈ 38.4 µM) | 0.0001 to 0.5 | 93 (≈ 223 µM)

Results, then the molecule that gave them:

solubility thermodynamic at 24 h (Thermodynamic solubility; [2]) [µg/mL] | solubility thermodynamic at 24 h (Thermodynamic solubility; [3]) [µg/mL] | IC50 [1] [µM] | solubility thermodynamic at 24 h (Thermodynamic solubility; [4]) [µg/mL] | SMILES
– | 16.4 (≈ 38.6 µM) | 1 to 5 | – | COc1cn2nc(CCC(C)(C)O)cc2cc1NC(=O)c1cccn(C2CCC2)c1=O [Compound 21, 1-cyclobutyl-N-[2-(3-hydroxy-3-methyl-butyl)-6-methoxy-pyrazolo[1,5-a]pyridin-5-yl]-2-oxo-pyridine-3-carboxamide]
50.6 (≈ 118 µM) | 14 (≈ 32.7 µM) | 0.0001 to 0.5 | 75.9 (≈ 177 µM) | COc1cn2nc(CC(F)C(C)(C)O)cc2cc1NC(=O)c1cccn(C2CC2)c1=O (stereo not shown) [Compound 22, 1-cyclopropyl-N-[2-(2-fluoro-3-hydroxy-3-methyl-butyl)-6-methoxy-pyrazolo[1,5-a]pyridin-5-yl]-2-oxo-pyridine-3-carboxamide]
200 (≈ 484 µM) | 28.5 (≈ 68.9 µM) | 0.0001 to 0.5 | 105 (≈ 254 µM) | [2H]C([2H])([2H])Oc1cn2nc(CCC(C)(C)O)cc2cc1NC(=O)c1cccn(C2CC2)c1=O [Compound 24, 1-cyclopropyl-N-[2-(3-hydroxy-3-methylbutyl)-6-(trideuteriomethoxy)pyrazolo[1,5-a]pyridin-5-yl]-2-oxopyridine-3-carboxamide]
